Test results published in US11292781B2, “Pyrimidine tricyclic enone derivatives for inhibition of ROR-gamma and other uses” (REATA PHARMACEUTICALS, INC., priority 2016, dated 2022).
Where two headings read alike, the source gives them in different places.

How the values were obtained:
[1] = test system: Nrf2 transcription factor (GST ARE luciferase reporter in AREc32 cells); assay: AREc32 luciferase reporter assay; type: cell-based, human; conditions: EC2×: concentration required to increase GST ARE luciferase reporter activity by 2-fold, 19 hours
Text: A. AREc32 Luciferase Reporter Assay The AREc32 luciferase reporter assay allows for quantitative assessment of the endogenous activity of the Nrf2 transcription factor in cultured mammalian cells. AREc32 cells are derived from MCF-7 human breast carcinoma cells that were stably transfected with a reporter construct that contains the firefly luciferase gene located downstream of eight copies of the rat GSTA2 antioxidant response element (ARE) sequence (Wang et al., 2006; CXR Biosciences). Active NRF2 binds to the ARE sequences and increases expression of the firefly luciferase gene. […] Luciferase activity was determined using the ONE-Glo Luciferase assay (Promega). The luminescence signal was measured on a BMG Pherastar microplate reader. The mean luminescence value from test compound-treated wells was normalized to that from DMSO-treated wells and was represented as fold-induction. Data were analyzed using GraphPad Prism version 6.00 for Windows, GraphPad Software, La Jolla Calif. USA. A non-linear regression curve with log (agonist) vs. response using a variable slope was used to fit the data. […] EC2× values were interpolated from the curve.

[2] = test system: IL-17A levels in primary human CD4+ T cells differentiated into Th17 cells; assay: IL-17 release from differentiated primary human T-cells (IL-17A HTRF); type: cell-based
Procedure: C. IL-17 Release from Differentiated Primary Human T-Cells and Cell Viability Primary human cryopreserved CD4+ T Cells (Lonza, donor #0000402103) were plated in Lymphocyte Growth Medium-3 (LGM-3, Lonza) according to the manufacturer's recommendations, and allowed to recover for approximately 3 hours at 37° C. with 5% CO2 in a humidified atmosphere. […] Triplicate wells were plated for each test condition. DMSO (final concentration ≤0.1%) was used as the vehicle. Immediately after plating, CD4+ T cells were activated by adding Dynabeads Human T-Activator CD3/CD28 (Life Technologies; bead-to-cell ratio of 1:2.5) and differentiated into Th17 cells by adding a mixture of the following cytokines: transforming growth factor-β (TGF-β, 5 ng/mL), IL-6 (20 ng/mL), IL-23 (20 ng/mL), and […] (10 ng/mL). Undifferentiated control cells received only cytokine IL-2 (50 ng/mL). All human recombinant cytokines were purchased from R&D Systems. Following a 46-hour incubation at 37° C. with 5% CO2 in a humidified atmosphere, the plates were centrifuged for 3 minutes at 250×g, and half of the supernatant was transferred to a new plate to be used in the IL-17A assay (see below). Cell viability was assessed in the original plate using the CyQuant Direct Assay (Life Technologies). CyQuant values from test compound samples were normalized to those from DMSO-treated samples. The concentration of IL-17A in the supernatant was measured using the Homogeneous Time-Resolved Fluorescence (HTRF) assay (Cisbio Bioassays) according to the manufacturer's protocol. The assay was performed at room temperature in low volume, solid white 384-well plates (Greiner Bio-One). […] A non-linear regression analysis with log (inhibitor) vs. normalized response using a variable slope was applied to fit the data and determine the IC50 values for inhibition of IL-17A levels and cell viability.

[3] = primary human CD4+ T cells, Th17 differentiation, 46-hour incubation, read-out: hIL17 IC50

SMILES: Cc1cccc2c(-c3nc(-c4ccccc4F)c4c(n3)[C@]3(C)C=C(C#N)C(=O)[C@H](C)[C@H]3CC4)ccnc12 [T68]
- HRF2 ARE 2× [1]: 253 nM
- IC50 [2, 3]: 31 nM

SMILES: Cc1cc(-c2nc(-c3ccccc3F)c3c(n2)[C@]2(C)C=C(C#N)C(=O)[C@H](C)[C@H]2CC3)c2ccccc2n1 [T69]
- HRF2 ARE 2× [1]: 227 nM
- IC50 [2, 3]: 20 nM

SMILES: Cc1nc(C)c(-c2nc(-c3ccccc3F)c3c(n2)[C@]2(C)C=C(C#N)C(=O)[C@H](C)[C@H]2CC3)s1 [T70]
- HRF2 ARE 2× [1]: 391 nM
- IC50 [2, 3]: 61 nM

SMILES: Cc1nc(-c2nc(-c3ccccc3F)c3c(n2)[C@]2(C)C=C(C#N)C(=O)[C@H](C)[C@H]2CC3)no1 [T71]
- HRF2 ARE 2× [1]: 780 nM
- IC50 [2, 3]: 198 nM

SMILES: Cc1ccc2nccc(-c3nc(-c4ccccc4F)c4c(n3)[C@]3(C)C=C(C#N)C(=O)[C@H](C)[C@H]3CC4)c2c1 [T73]
- HRF2 ARE 2× [1]: 407 nM
- IC50 [2, 3]: 69 nM

SMILES: C[C@H]1C(=O)C(C#N)=C[C@@]2(C)c3nc(-c4ncnc5ccccc45)nc(-c4ccccc4F)c3CC[C@H]12 [T74]
- HRF2 ARE 2× [1]: 507 nM
- IC50 [2, 3]: 49 nM

SMILES: C[C@H]1C(=O)C(C#N)=C[C@@]2(C)c3nc(-c4nccc5ccccc45)nc(-c4ccccc4F)c3CC[C@H]12 [T75]
- HRF2 ARE 2× [1]: 552 nM
- IC50 [2, 3]: 42 nM

SMILES: C[C@H]1C(=O)C(C#N)=C[C@@]2(C)c3nc(-c4ccnc5cc(F)ccc45)nc(-c4ccccc4F)c3CC[C@H]12 [T76]
- HRF2 ARE 2× [1]: 315 nM
- IC50 [2, 3]: 35 nM

SMILES: C[C@H]1C(=O)C(C#N)=C[C@@]2(C)c3nc(-c4ccnc5c(F)cccc45)nc(-c4ccccc4F)c3CC[C@H]12 [T77]
- HRF2 ARE 2× [1]: 264 nM
- IC50 [2, 3]: 31 nM

SMILES: Cc1cc(-c2nc(-c3ccccc3F)c3c(n2)[C@]2(C)C=C(C#N)C(=O)[C@H](C)[C@H]2CC3)ncn1 [T78]
- HRF2 ARE 2× [1]: 629 nM
- IC50 [2, 3]: 89 nM

SMILES: C[C@H]1C(=O)C(C#N)=C[C@@]2(C)c3nc(-c4ccnnc4)nc(-c4ccccc4F)c3CC[C@H]12 [T79]
- HRF2 ARE 2× [1]: 109 nM
- IC50 [2, 3]: 143 nM

SMILES: C[C@H]1C(=O)C(C#N)=C[C@@]2(C)c3nc(-c4ccnc5c4CCC5)nc(-c4ccccc4F)c3CC[C@H]12 [T80]
- HRF2 ARE 2× [1]: 312 nM
- IC50 [2, 3]: 58 nM

SMILES: C[C@H]1C(=O)C(C#N)=C[C@@]2(C)c3nc(-c4cccc5ncccc45)nc(-c4ccccc4F)c3CC[C@H]12 [T84]
- HRF2 ARE 2× [1]: 321 nM
- IC50 [2, 3]: 36 nM

SMILES: Cc1cc(-c2nc(-c3ccccc3F)c3c(n2)[C@]2(C)C=C(C#N)C(=O)[C@H](C)[C@H]2CC3)c2cc(F)ccc2n1 [T85]
- HRF2 ARE 2× [1]: 307 nM
- IC50 [2, 3]: 38 nM

SMILES: C[C@H]1C(=O)C(C#N)=C[C@@]2(C)c3nc(-c4cccc5cnccc45)nc(-c4ccccc4F)c3CC[C@H]12 [T86]
- HRF2 ARE 2× [1]: 276 nM
- IC50 [2, 3]: 33 nM

SMILES: Cc1noc(C)c1-c1nc(-c2ccccc2F)c2c(n1)[C@]1(C)C=C(C#N)C(=O)[C@H](C)[C@H]1CC2 [T87]
- HRF2 ARE 2× [1]: 245 nM
- IC50 [2, 3]: 109 nM

SMILES: C[C@H]1C(=O)C(C#N)=C[C@@]2(C)c3nc(-c4ccnc5ccc(F)cc45)nc(-c4ccccc4F)c3CC[C@H]12 [T89]
- HRF2 ARE 2× [1]: 274 nM
- IC50 [2, 3]: 62 nM

SMILES: C[C@H]1C(=O)C(C#N)=C[C@@]2(C)c3nc(-c4ccnc5c(F)cc(F)cc45)nc(-c4ccccc4F)c3CC[C@H]12 [T90]
- HRF2 ARE 2× [1]: 301 nM
- IC50 [2, 3]: 37 nM

SMILES: C[C@H]1C(=O)C(C#N)=C[C@@]2(C)c3nc(-c4ccnc5ccccc45)nc(C4CC4)c3CC[C@H]12 [T93]
- HRF2 ARE 2× [1]: 283 nM
- IC50 [2, 3]: 101 nM

SMILES: C[C@H]1C(=O)C(C#N)=C[C@@]2(C)c3nc(-c4ccnc5ccccc45)nc(OC4CCC4)c3CC[C@H]12 [T94]
- HRF2 ARE 2× [1]: 321 nM
- IC50 [2, 3]: 58 nM

SMILES: C[C@H]1C(=O)C(C#N)=C[C@@]2(C)c3nc(-c4ccnc5ccccc45)nc(OCC4CCC4)c3CC[C@H]12 [T95]
- HRF2 ARE 2× [1]: 430 nM
- IC50 ([2]; Homo sapiens, CD4+ T, 46 h, read-out: hIL17 IC50 (nM)): 68 nM

SMILES: C[C@H]1C(=O)C(C#N)=C[C@@]2(C)c3nc(-c4ccnc5ccccc45)nc(OC4CCCCC4)c3CC[C@H]12 [T96]
- HRF2 ARE 2× [1]: 492 nM
- IC50 [2, 3]: 58 nM

SMILES: C[C@H]1C(=O)C(C#N)=C[C@@]2(C)c3nc(-c4ccnc5ccccc45)nc(OC4CCCC4)c3CC[C@H]12 [T97]
- HRF2 ARE 2× [1]: 330 nM
- IC50 [2, 3]: 35 nM

SMILES: C[C@H]1C(=O)C(C#N)=C[C@@]2(C)c3nc(-c4ccnc5ccccc45)nc(N(C)C)c3CC[C@H]12 [T99]
- HRF2 ARE 2× [1]: 508 nM
- IC50 [2, 3]: 189 nM

SMILES: Cc1noc(C)c1-c1nc(-c2ccnc3ccccc23)nc2c1CC[C@@H]1[C@@H](C)C(=O)C(C#N)=C[C@@]21C [T100]
- HRF2 ARE 2× [1]: 865 nM
- IC50 [2, 3]: 178 nM

SMILES: C[C@H]1C(=O)C(C#N)=C[C@@]2(C)c3nc(-c4ccnc5ccccc45)nc(-c4ccc(C(=O)N(C)Cc5ccccc5)cc4)c3CC[C@H]12 [T101]
- HRF2 ARE 2× [1]: 295 nM
- IC50 [2, 3]: 200 nM

SMILES: C[C@H]1C(=O)C(C#N)=C[C@@]2(C)c3nc(-c4ccnc5ccccc45)nc(-c4ccco4)c3CC[C@H]12 [T102]
- HRF2 ARE 2× [1]: 287 nM
- IC50 [2, 3]: 153 nM

SMILES: C[C@H]1C(=O)C(C#N)=C[C@@]2(C)c3nc(-c4ccnc5ccccc45)nc(-c4cc5ccccc5o4)c3CC[C@H]12 [T103]
- HRF2 ARE 2× [1]: 277 nM
- IC50 [2, 3]: 38 nM

SMILES: Cc1ccc(-c2nc(-c3ccnc4ccccc34)nc3c2CC[C@@H]2[C@@H](C)C(=O)C(C#N)=C[C@@]32C)o1 [T104]
- HRF2 ARE 2× [1]: 293 nM
- IC50 [2, 3]: 86 nM

SMILES: Cc1noc(-c2nc(-c3ccnc4ccccc34)nc3c2CC[C@@H]2[C@@H](C)C(=O)C(C#N)=C[C@@]32C)n1 [T105]
- HRF2 ARE 2× [1]: 292 nM
- IC50 [2, 3]: 65 nM

SMILES: Cc1nc(-c2nc(-c3ccnc4ccccc34)nc3c2CC[C@@H]2[C@@H](C)C(=O)C(C#N)=C[C@@]32C)no1 [T106]
- HRF2 ARE 2× [1]: 139 nM
- IC50 [2, 3]: 173 nM

SMILES: C[C@H]1C(=O)C(C#N)=C[C@@]2(C)c3nc(-c4ccnc5ccccc45)nc(-c4nccs4)c3CC[C@H]12 [T107]
- HRF2 ARE 2× [1]: 284 nM
- IC50 [2, 3]: 170 nM

SMILES: Cc1cc(-c2nc(-c3cccc(F)c3)c3c(n2)[C@]2(C)C=C(C#N)C(=O)[C@H](C)[C@H]2CC3)c2ccccc2n1 [T108]
- HRF2 ARE 2× [1]: 225 nM
- IC50 [2, 3]: 21 nM

SMILES: Cc1cc(-c2nc(-c3ccc(F)cc3)c3c(n2)[C@]2(C)C=C(C#N)C(=O)[C@H](C)[C@H]2CC3)c2ccccc2n1 [T109]
- HRF2 ARE 2× [1]: 251 nM
- IC50 [2, 3]: 18 nM

SMILES: Cc1cc(-c2nc(OC3CCC3)c3c(n2)[C@]2(C)C=C(C#N)C(=O)[C@H](C)[C@H]2CC3)c2ccccc2n1 [T110]
- HRF2 ARE 2× [1]: 317 nM
- IC50 [2, 3]: 37 nM

SMILES: Cc1cc(-c2nc(OC3CCCC3)c3c(n2)[C@]2(C)C=C(C#N)C(=O)[C@H](C)[C@H]2CC3)c2ccccc2n1 [T111]
- HRF2 ARE 2× [1]: 317 nM
- IC50 [2, 3]: 19 nM

SMILES: C[C@H]1C(=O)C(C#N)=C[C@@]2(C)c3nc(-c4ncnc5ccccc45)nc(OC4CCC4)c3CC[C@H]12 [T112]
- HRF2 ARE 2× [1]: 559 nM
- IC50 [2, 3]: 85 nM

SMILES: C[C@H]1C(=O)C(C#N)=C[C@@]2(C)c3nc(-c4ncnc5ccccc45)nc(-c4cccc(F)c4)c3CC[C@H]12 [T113]
- HRF2 ARE 2× [1]: 734 nM
- IC50 [2, 3]: 48 nM
